These results are taken from US9492471B2, “Methods of treating a disease or disorder associated with Bruton'S Tyrosine Kinase” (Celgene Avilomics Research, Inc., priority 2013, dated 2016).

Where two headings read alike, the source gives them in different places.

Holding throughout (assay): HotSpot kinase profiling
Holding throughout (assay type): biochemical

The target of one experiment is T1, ALK3/BMPR1A (Homo sapiens, UniProt P36894).
T1 construct: purchased Reaction Biology Corp
A digest of the protocol:
(§1)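 Activity is measured by radiolabel transfer captured on P81 filters after a 2 h room-temperature reaction of kinase, substrate and cofactors. Values are percent inhibition against DMSO.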

The target in the next experiment is T2, CDK6/cyclin D3 (Homo sapiens, UniProt Q00534).
T2 construct: purchased Reaction Biology Corp
T2 sequence (Q00534 whole entry): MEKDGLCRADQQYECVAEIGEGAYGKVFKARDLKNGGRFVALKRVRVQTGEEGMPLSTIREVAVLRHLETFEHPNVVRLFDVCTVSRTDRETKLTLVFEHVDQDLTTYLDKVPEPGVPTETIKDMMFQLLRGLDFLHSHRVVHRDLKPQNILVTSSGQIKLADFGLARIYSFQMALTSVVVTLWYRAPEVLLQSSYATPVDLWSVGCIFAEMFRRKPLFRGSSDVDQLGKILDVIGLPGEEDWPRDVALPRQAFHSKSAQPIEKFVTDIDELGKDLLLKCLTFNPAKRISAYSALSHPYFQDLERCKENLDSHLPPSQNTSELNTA
T2 sequence (P30281 whole entry partner): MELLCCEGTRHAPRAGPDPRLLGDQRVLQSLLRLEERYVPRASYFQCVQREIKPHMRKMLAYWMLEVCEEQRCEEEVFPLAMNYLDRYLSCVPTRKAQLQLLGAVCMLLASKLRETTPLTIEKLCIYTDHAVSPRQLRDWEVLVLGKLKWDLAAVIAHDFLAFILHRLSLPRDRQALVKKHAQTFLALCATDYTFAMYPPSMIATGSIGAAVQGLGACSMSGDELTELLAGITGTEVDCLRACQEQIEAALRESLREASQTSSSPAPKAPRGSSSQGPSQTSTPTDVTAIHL
A digest of the protocol:
as §1

In the next experiment the target is T3, LATS2 (Homo sapiens, UniProt Q9NRM7).
T3 construct: purchased Reaction Biology Corp
T3 sequence (Q9NRM7 1-1088): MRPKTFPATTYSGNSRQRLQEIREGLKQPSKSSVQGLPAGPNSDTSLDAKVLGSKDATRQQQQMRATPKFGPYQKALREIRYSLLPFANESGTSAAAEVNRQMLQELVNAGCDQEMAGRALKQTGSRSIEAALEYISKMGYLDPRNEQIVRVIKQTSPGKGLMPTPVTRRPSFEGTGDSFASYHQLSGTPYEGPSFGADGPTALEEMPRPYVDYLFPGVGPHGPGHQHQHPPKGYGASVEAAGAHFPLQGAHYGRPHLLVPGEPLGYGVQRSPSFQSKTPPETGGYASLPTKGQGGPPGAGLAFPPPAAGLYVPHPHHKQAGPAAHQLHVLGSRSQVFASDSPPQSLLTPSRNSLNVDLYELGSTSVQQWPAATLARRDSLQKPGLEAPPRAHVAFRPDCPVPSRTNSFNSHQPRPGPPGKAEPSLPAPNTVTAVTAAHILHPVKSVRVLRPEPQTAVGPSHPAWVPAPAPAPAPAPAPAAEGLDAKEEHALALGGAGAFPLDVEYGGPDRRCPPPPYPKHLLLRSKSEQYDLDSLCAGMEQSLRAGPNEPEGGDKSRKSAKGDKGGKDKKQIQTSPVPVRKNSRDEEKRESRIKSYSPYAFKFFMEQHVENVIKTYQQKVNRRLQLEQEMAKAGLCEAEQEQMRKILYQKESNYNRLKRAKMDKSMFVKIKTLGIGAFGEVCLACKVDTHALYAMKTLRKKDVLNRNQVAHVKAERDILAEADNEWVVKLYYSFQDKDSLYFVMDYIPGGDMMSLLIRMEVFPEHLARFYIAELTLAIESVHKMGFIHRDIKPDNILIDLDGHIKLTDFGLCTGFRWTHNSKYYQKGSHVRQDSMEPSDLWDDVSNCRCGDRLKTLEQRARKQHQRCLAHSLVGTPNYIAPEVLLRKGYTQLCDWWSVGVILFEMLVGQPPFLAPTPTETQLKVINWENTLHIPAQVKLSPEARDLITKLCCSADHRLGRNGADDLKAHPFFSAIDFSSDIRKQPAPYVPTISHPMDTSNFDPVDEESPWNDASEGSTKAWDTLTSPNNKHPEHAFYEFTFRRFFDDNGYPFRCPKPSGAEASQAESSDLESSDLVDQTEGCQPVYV
A digest of the protocol:
as §1

A further experiment concerns the target T4, RIPK5 (Homo sapiens, UniProt Q6XUX3).
T4 construct: purchased Reaction Biology Corp
T4 sequence (Q6XUX3 1-929): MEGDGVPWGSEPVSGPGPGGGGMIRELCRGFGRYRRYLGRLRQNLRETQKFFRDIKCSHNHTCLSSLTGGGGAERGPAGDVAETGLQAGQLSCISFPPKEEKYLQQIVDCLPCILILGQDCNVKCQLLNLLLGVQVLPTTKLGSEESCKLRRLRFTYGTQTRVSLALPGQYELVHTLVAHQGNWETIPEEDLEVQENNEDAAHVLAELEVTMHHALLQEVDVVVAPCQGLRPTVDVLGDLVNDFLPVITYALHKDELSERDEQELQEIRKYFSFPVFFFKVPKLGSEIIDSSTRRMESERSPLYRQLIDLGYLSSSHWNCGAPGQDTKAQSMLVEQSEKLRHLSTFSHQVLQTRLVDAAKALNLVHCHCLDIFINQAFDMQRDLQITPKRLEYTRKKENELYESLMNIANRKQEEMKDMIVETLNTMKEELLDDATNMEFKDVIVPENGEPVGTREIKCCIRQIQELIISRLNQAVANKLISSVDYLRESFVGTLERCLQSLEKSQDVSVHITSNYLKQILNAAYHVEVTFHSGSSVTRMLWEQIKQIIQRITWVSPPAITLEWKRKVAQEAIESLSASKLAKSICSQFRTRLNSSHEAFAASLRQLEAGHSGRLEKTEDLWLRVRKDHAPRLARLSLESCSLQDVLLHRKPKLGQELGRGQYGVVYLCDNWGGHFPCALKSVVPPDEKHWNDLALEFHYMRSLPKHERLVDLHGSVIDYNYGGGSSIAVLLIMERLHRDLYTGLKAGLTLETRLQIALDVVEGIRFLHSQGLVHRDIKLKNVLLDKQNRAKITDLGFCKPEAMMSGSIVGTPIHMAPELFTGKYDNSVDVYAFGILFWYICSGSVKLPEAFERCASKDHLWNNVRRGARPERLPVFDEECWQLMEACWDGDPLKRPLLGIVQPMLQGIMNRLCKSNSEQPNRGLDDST
A digest of the protocol:
as §1

Where [1] appears, read: read-out: % Enzyme Activity (relative to DMSO controls) Run 1.
Where [2] appears, read: read-out: % Enzyme Activity (relative to DMSO controls) Run 2.

T1 sequence (P36894 24-532): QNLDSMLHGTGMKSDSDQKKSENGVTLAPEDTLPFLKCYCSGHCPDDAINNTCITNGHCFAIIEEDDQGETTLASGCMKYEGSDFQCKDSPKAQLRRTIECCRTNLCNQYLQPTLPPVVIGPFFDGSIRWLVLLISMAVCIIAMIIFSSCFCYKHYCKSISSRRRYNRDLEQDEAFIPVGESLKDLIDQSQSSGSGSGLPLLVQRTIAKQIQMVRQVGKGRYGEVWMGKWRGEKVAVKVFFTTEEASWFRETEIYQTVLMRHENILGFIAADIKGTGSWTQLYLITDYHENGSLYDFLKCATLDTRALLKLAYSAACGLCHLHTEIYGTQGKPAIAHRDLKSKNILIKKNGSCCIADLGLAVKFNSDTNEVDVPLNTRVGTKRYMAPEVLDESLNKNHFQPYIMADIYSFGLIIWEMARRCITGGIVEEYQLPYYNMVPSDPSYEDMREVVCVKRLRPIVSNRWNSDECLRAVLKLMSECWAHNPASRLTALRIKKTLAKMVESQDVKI

As usually defined, the inhibition is the drop in the measured response relative to a control, in per cent. Regarding `C=CC(=O)Nc1cccc(Nc2nc(Nc3ccc(OCCOC)c(F)c3)ncc2F)c1` [Compound 2], the inhibition at 3 µM at ALK3/BMPR1A is -4.41%; at CDK6/cyclin D3 it was 0.16%; against LATS2, 10.2%; at RIPK5, 2.32%. Also, the remaining activity at 3 µM at ALK3/BMPR1A (setting [1]) worked out at 104%; at ALK3/BMPR1A (setting [2]), 105%; at CDK6/cyclin D3 (setting [1]), 99.5%; on CDK6/cyclin D3 (setting [2]), 100%; at LATS2 (setting [1]) it was 88.4%; at LATS2 (setting [2]) it was 91.2%. The remaining activity at 3 µM on RIPK5 (setting [1]) stood at 96.1%; at RIPK5 (setting [2]), 99.2%.
